Data taken from patent publication US10781181B2, “N-((het) arylmethyl)-heteroaryl-carboxamides compounds as plasma kallikrein inhibitors” (Kalvista Pharmaceuticals Limited, priority 2014, dated 2020).

Experiments:
Human plasma kallikrein = Human plasma kallikrein (Homo sapiens (Human), UniProt P03952); test: Determination of the IC50 for plasma kallikrein; assay type: biochemical; settings: read-out: IC50 (human PKal)
Description: Determination of the IC50 for Plasma Kallikrein
(§1) Human plasma kallikrein (Protogen) was incubated at 25° C. with the fluorogenic substrate H-DPro-Phe-Arg-AFC and various concentrations of the test compound. Residual enzyme activity (initial rate of reaction) was determined by measuring the change in […] at 410 nm and the IC50 value for the test compound was determined.

Human KLK1 = Human KLK1 (Homo sapiens (Human), UniProt P06870); test: Determination of the IC50 for KLK1; assay type: biochemical; settings: human KLK1, 25° C., substrate H-DVal-Leu-Arg-AFC
Sequence of Human KLK1 (P06870 25-262): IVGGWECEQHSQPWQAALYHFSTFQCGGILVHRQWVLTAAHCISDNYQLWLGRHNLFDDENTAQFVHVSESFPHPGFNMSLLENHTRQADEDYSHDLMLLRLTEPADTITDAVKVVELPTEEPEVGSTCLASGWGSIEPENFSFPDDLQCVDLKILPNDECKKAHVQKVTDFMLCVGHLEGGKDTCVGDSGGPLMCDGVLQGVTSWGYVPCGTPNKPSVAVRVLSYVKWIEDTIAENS
Description: Determination of the IC50 for KLK1
as §1, with “KLK1 (Callbiochem)” for “plasma kallikrein (Protogen)”, “H-DVal-Leu-Arg-AFC” for “H-DPro-Phe-Arg-AFC”

[1] = Pharmacokinetics following a single oral dose in rats; assay type: in vivo; settings: rat, male Sprague-Dawley rats, nominal 10 mg/kg in 10% DMSO/10% cremophor/80% SWFI, plasma, actual dose 7.6 mg/kg (Example 115), 8.4 mg/kg (Example 85)
Description: Pharmacokinetic studies of the compounds in Table 15 were performed to assess the pharmacokinetics following a single oral dose in male Sprague-Dawley rats. Two rats were given a single po dose of 5 mL/kg of a nominal 2 mg/mL (10 mg/kg) composition of test compound in 10% DMSO/10% cremophor/80% SWFI. Following dosing, blood samples were collected over a period of 24 hours. Sample times were 5, 15 and 30 minutes then 1, 2, 4, 6, 8 and 12 hours. Following collection, blood samples were centrifuged and the plasma fraction analysed for concentration of test compound by LCMS.

Human FXIa = Human FXIa (Homo sapiens (Human), UniProt P03951); test: Determination of the % inhibition for FXIa; assay type: biochemical; settings: 40 μM of the test compound, human FXIa, 25° C.; read-out: % Inhibition @ 40 μM (human FXIa)
Sequence of Human FXIa (P03951 388-625 limits assumed): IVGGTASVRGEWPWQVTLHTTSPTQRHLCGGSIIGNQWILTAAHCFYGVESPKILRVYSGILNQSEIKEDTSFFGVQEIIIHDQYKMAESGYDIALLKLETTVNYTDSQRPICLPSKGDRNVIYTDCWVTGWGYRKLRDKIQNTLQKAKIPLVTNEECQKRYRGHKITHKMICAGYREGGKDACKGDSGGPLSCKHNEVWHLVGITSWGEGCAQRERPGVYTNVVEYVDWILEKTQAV
Sequence of Human FXIa (P03951 19-387 partner limits assumed): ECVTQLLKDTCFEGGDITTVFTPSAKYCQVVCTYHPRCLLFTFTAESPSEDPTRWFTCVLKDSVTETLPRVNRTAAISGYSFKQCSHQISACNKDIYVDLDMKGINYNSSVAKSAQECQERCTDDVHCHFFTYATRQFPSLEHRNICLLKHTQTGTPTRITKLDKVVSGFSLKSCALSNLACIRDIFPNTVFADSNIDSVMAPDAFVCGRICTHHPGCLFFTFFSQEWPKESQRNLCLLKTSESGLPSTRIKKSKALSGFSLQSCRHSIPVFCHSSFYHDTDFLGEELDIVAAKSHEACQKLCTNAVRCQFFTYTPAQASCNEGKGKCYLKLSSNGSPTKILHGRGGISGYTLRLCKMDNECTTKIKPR
Description: Determination of the % Inhibition for FXIa
Human FXIa (Enzyme Research Laboratories) was incubated at 25° C. with the fluorogenic substrate Z-Gly-Pro-Arg-AFC and 40 μM of the test compound. Residual enzyme activity (initial rate of reaction) was determined by measuring the change in […].

Sequence of Human plasma kallikrein (P03952 391-638): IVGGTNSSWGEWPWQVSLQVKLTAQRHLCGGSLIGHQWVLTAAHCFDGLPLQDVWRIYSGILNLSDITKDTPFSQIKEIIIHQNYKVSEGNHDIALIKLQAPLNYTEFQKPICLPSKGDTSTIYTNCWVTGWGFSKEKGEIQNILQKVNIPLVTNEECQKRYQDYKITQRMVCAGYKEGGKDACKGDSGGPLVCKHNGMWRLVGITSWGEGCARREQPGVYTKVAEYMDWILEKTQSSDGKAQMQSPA
Sequence of Human plasma kallikrein (P03952 20-390 partner): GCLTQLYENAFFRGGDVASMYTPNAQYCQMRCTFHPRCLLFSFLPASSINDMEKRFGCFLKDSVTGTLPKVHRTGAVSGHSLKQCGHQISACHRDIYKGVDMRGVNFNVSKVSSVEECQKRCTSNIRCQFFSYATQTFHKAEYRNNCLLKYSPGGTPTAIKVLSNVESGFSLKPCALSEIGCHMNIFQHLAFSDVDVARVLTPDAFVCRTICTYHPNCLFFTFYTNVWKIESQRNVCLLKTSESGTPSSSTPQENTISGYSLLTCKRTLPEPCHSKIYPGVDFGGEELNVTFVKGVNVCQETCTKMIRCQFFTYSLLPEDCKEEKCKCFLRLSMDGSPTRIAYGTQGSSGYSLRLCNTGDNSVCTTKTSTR

SMILES | IC50 (Human plasma kallikrein) [µM] | IC50 (Human KLK1) [µM] | Cmax [1] [ng/mL] | Tmax [1] [min] | inhibition at 40 µM (Human FXIa) [%]
C[C@@H](CNC(=O)c1cn(Cc2ccc(Cn3ccccc3=O)cc2)nc1N)Oc1cccc(Cl)c1 [Example 115, 3-Amino-N-[(2S)-2-(3-chlorophenoxy)propyl]-1-({4-[(2-oxopyridin-1-yl)methyl]phenyl}methyl)-pyrazole-4-carboxamide] | 0.0056 | > 40 | 538 | 30 | –
Cc1cccn(Cc2ccc(Cn3cc(C(=O)NCCOc4cccc(Cl)c4)c(N)n3)cc2)c1=O [Example 85, 3-amino-N-[2-(3-chlorophenoxy)ethyl]-1-({4-[(3-methyl-2-oxopyridin-1-yl)methyl]phenyl}methyl)pyrazole-4-carboxamide] | 0.0035 | > 40 | 228 | 45 | 1
Nc1nn(Cc2ccc3[nH]ncc3c2)cc1C(=O)NCCOc1cccc(Cl)c1 [Example 92, 3-amino-N-[2-(3-chlorophenoxy)ethyl]-1-(1H-indazol-5-ylmethyl)pyrazole-4-carboxamide] | > 10 | > 10 | – | – | 2
Cn1ncc2cc(Cn3cc(C(=O)NCCOc4cccc(Cl)c4)c(N)n3)ccc21 [Example 93, 3-amino-N-[2-(3-chlorophenoxy)ethyl]-1-[(1-methylindazol-5-yl)methyl]pyrazole-4-carboxamide] | > 10 | > 40 | – | – | 2
